In ChEMBL document CHEMBL3526017, “Predicting the drug interaction potential of AMG 853, a dual antagonist of the D-prostanoid and chemoattractant receptor-homologous molecule expressed on T helper 2 cells receptors” (Drug Metab Dispos, 2012):

Columns and labels:
[1] = target: T1, Cytochrome P450 3A7 (Homo sapiens, UniProt P24462); assay: Drug metabolism assessed as recombinant CYP3A7 (unknown origin)-mediated compound formation measured per nmol protein treated with AMG 853 after 15 mins by LC-MS/MS analysis; format: ADME; conditions: recombinant enzyme, 0.25 h
T1 sequence (P24462 whole entry): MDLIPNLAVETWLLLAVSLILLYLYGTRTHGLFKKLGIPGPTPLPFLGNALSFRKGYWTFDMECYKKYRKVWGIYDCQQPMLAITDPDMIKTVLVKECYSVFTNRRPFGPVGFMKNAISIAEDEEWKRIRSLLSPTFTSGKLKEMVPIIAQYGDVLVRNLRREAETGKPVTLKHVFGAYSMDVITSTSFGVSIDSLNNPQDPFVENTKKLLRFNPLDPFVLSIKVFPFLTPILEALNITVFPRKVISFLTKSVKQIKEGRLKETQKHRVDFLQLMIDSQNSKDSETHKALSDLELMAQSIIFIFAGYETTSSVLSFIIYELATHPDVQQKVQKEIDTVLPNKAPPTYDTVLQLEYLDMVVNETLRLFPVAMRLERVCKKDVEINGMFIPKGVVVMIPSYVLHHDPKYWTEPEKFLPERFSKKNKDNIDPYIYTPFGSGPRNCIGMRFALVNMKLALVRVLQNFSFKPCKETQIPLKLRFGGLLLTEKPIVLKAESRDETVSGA

[2] = Drug metabolism in human liver microsomes assessed as […]-mediated compound formation treated with AMG 853 after 15 mins by LC-MS/MS analysis; format: ADME; conditions: 0.25 h
[3] = target: T2, Cytochrome P450 3A5 (Homo sapiens, UniProt P20815); assay: Drug metabolism assessed as recombinant CYP3A5 (unknown origin)-mediated compound formation measured per nmol protein treated with AMG 853 after 15 mins by LC-MS/MS analysis; format: ADME; conditions: recombinant enzyme, 0.25 h
T2 sequence (P20815 whole entry): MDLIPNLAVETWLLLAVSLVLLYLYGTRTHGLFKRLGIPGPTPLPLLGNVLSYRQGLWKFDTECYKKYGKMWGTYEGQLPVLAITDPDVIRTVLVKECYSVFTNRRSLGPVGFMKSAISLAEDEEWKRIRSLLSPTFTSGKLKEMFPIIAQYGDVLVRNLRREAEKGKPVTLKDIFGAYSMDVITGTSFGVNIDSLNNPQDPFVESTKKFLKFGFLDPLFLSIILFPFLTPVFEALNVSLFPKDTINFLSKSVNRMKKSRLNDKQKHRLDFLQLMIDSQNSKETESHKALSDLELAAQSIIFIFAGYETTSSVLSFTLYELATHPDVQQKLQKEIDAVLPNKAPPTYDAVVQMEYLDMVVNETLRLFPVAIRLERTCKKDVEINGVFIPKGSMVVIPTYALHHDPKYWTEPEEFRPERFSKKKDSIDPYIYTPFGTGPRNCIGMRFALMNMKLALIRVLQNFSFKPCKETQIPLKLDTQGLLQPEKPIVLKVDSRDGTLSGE

[4] = Drug metabolism in human liver microsomes assessed as CYP3A5*1/*1-mediated compound formation treated with AMG 853 after 15 mins by LC-MS/MS analysis; format: ADME; conditions: 0.25 h
[5] = target: T3, Cytochrome P450 2C8 (Homo sapiens, UniProt P10632); assay: Drug metabolism assessed as recombinant CYP2C8 (unknown origin)-mediated compound formation treated with AMG 853 at 10 uM after 30 mins by LC-MS/MS analysis; format: ADME; conditions: recombinant enzyme, 0.5 h
T3 sequence (P10632 whole entry): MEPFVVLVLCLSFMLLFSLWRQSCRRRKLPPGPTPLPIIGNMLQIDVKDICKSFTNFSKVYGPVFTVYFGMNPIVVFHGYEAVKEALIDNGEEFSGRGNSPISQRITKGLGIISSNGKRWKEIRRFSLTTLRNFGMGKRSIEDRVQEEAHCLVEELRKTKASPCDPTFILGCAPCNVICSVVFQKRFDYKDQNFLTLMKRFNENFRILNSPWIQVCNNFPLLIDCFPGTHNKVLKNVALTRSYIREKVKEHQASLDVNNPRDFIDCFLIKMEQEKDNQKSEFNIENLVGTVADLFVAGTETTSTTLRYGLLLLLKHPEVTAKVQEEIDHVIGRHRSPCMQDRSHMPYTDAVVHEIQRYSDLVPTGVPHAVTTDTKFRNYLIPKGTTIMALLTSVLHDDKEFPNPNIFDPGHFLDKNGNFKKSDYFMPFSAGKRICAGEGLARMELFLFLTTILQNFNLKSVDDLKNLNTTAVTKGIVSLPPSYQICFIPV

[6] = target: T3, Cytochrome P450 2C8; assay: Inhibition of recombinant CYP2C8 (unknown origin) treated with AMG 853; format: ADME
[7] = target: T3, Cytochrome P450 2C8; assay: Drug metabolism assessed as recombinant CYP2C8 (unknown origin)-mediated compound formation measured per nmol protein treated with AMG 853 after 15 mins by LC-MS/MS analysis; format: ADME; conditions: recombinant enzyme, 0.25 h
[8] = target: T2, Cytochrome P450 3A5; assay: Drug metabolism assessed as recombinant CYP3A5 (unknown origin)-mediated compound formation treated with AMG 853 at 10 uM after 30 mins by LC-MS/MS analysis; format: ADME; conditions: recombinant enzyme, 0.5 h
[9] = target: T1, Cytochrome P450 3A7; assay: Drug metabolism assessed as recombinant CYP3A7 (unknown origin)-mediated compound formation treated with AMG 853 at 10 uM after 30 mins by LC-MS/MS analysis; format: ADME; conditions: recombinant enzyme, 0.5 h
[10] = target: T4, Cytochrome P450 2J2 (Homo sapiens, UniProt P51589); assay: Drug metabolism assessed as recombinant CYP2J2 (unknown origin)-mediated compound formation measured per nmol protein treated with AMG 853 after 15 mins by LC-MS/MS analysis; format: ADME; conditions: recombinant enzyme, 0.25 h
T4 sequence (P51589 whole entry): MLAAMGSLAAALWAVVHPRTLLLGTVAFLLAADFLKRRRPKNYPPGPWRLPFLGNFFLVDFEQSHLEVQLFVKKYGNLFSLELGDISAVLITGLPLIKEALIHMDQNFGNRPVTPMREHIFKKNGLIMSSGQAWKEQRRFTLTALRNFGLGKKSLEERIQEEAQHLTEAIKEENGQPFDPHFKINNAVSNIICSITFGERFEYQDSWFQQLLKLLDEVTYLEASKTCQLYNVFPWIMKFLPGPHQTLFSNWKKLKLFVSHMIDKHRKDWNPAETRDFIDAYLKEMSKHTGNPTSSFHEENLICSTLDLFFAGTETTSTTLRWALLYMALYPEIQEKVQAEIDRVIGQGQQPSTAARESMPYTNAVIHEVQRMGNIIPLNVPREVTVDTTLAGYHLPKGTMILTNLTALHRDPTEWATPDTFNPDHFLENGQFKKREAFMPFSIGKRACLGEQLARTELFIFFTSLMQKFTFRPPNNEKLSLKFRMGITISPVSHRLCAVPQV

[11] = target: T4, Cytochrome P450 2J2; assay: Inhibition of recombinant CYP2J2 (unknown origin) treated with AMG 853; format: ADME
[12] = target: T5, Cytochrome P450 3A4 (Homo sapiens, UniProt P08684); assay: Drug metabolism assessed as recombinant CYP3A4 (unknown origin)-mediated compound formation treated with AMG 853 at 10 uM after 30 mins by LC-MS/MS analysis; format: ADME; conditions: recombinant enzyme, 0.5 h
T5 sequence (P08684 whole entry): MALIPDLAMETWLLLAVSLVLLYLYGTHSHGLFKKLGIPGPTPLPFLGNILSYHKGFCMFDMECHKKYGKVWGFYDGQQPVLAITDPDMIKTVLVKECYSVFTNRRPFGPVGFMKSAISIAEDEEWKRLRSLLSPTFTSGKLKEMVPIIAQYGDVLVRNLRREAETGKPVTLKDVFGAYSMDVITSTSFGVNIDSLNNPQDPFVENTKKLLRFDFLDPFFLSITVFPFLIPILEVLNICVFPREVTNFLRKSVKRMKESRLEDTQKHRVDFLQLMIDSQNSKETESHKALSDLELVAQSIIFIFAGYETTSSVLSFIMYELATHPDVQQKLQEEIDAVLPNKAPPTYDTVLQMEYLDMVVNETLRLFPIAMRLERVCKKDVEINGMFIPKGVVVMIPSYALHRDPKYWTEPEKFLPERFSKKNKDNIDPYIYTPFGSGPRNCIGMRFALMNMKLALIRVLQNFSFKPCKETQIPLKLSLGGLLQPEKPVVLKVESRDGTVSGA

[13] = target: T5, Cytochrome P450 3A4; assay: Drug metabolism assessed as recombinant CYP3A4 (unknown origin)-mediated compound formation measured per nmol protein treated with AMG 853 after 15 mins by LC-MS/MS analysis; format: ADME; conditions: recombinant enzyme, 0.25 h
[14] = target: T4, Cytochrome P450 2J2; assay: Drug metabolism assessed as recombinant CYP2J2 (unknown origin)-mediated compound formation treated with AMG 853 at 10 uM after 30 mins by LC-MS/MS analysis; format: ADME; conditions: recombinant enzyme, 0.5 h
[15] = target: Cytochrome P450 2C19 (Homo sapiens, UniProt P33261); assay: Drug metabolism assessed as recombinant CYP2C19 (unknown origin)-mediated compound formation treated with AMG 853 at 10 uM after 30 mins by LC-MS/MS analysis; format: ADME; conditions: recombinant enzyme, 0.5 h
Cytochrome P450 2C19, sequence (P33261 whole entry): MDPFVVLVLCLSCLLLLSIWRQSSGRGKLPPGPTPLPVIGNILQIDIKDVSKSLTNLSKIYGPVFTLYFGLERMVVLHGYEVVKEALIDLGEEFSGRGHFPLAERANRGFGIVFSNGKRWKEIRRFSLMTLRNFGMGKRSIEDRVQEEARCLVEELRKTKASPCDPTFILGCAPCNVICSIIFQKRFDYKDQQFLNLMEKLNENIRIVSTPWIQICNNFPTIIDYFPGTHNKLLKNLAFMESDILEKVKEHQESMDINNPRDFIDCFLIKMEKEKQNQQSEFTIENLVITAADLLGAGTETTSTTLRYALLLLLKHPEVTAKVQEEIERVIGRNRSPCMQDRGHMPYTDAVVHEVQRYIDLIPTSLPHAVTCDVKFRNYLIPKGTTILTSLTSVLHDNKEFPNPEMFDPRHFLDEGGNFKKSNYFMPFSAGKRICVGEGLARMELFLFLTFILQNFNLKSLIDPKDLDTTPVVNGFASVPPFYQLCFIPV

[16] = target: CYP1A2 (Homo sapiens, UniProt P05177); assay: Induction of CYP1A2 in human hepatocytes using phenacetin as substrate at 0.3 to 30 uM treated every 24 hrs for 2 days measured on day 5 by LC-MS/MS analysis relative to control; format: ADME, cell-based, Hepatocyte; conditions: probe phenacetin, read-out: FC
CYP1A2, sequence (P05177 whole entry): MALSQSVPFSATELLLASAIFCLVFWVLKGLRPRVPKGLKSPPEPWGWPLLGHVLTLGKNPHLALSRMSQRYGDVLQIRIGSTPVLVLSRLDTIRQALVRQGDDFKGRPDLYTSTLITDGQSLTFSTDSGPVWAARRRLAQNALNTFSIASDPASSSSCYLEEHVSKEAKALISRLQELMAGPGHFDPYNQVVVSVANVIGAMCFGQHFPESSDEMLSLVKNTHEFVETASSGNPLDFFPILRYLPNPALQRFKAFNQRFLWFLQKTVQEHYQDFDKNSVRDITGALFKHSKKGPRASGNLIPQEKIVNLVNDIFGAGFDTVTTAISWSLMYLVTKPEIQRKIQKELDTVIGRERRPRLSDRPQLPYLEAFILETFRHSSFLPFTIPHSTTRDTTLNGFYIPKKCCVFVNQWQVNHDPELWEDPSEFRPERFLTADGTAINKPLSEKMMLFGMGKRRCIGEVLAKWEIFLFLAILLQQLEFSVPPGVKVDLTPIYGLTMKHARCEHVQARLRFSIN

[17] = target: CYP2B6 (Homo sapiens, UniProt P20813); assay: Induction of CYP2B6 in human hepatocytes using bupropion as substrate at 0.3 to 30 uM treated every 24 hrs for 2 days measured on day 5 by LC-MS/MS analysis relative to control; format: ADME, cell-based, Hepatocyte; conditions: probe bupropion, read-out: FC
CYP2B6, sequence (P20813 whole entry): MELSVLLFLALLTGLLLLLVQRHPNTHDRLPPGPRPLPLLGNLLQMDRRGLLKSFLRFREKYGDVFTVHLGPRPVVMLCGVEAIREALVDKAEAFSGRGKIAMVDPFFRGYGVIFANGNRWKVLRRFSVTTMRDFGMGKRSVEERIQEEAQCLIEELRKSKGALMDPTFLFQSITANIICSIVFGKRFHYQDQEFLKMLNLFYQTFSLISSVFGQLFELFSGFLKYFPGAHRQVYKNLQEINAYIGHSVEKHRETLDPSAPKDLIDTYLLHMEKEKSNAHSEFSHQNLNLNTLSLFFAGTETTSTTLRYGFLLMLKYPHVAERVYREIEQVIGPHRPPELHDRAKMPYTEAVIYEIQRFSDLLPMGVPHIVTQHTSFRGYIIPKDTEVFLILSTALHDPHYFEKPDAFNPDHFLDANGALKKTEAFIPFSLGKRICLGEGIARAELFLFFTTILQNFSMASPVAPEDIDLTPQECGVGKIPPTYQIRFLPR

CC(C)(CO)NC(=O)c1ccc(Oc2cc(F)c(CC(=O)O)cc2Cl)c(NS(=O)(=O)c2ccc(C3CC3)cc2Cl)c1
Vmax [1]: 0.26 nmol/min | Km [2]: 4.11 µM | Vmax [2]: 0.023 nmol/min/mg | Vmax [3]: 0.221 nmol/min | Km [4]: 2.75 µM | Vmax [4]: 0.044 nmol/min/mg | Drug metabolism [5]: metabolite_detected | Ki [6]: 31.7 µM | Vmax [7]: 0.031 nmol/min | Drug metabolism [8]: metabolite_detected | Drug metabolism [9]: metabolite_detected | Vmax [10]: 0.584 nmol/min | Ki [11]: 240 µM | Drug metabolism [12]: metabolite_detected | Vmax [13]: 0.96 nmol/min | Drug metabolism [14]: metabolite_detected

CC(C)(C)NC(=O)c1ccc(Oc2cc(F)c(CC(=O)O)cc2Cl)c(NS(=O)(=O)c2ccc(C3(O)CC3)cc2Cl)c1
Vmax [1]: 0.286 nmol/min | Km [2]: 35.2 µM | Vmax [2]: 0.296 nmol/min/mg | Vmax [3]: 1.13 nmol/min | Km [4]: 38.5 µM | Vmax [4]: 0.317 nmol/min/mg | Drug metabolism [5]: metabolite_detected | Vmax [7]: 0.25 nmol/min | Drug metabolism [8]: metabolite_detected | Drug metabolism [9]: metabolite_detected | Drug metabolism [15]: metabolite_detected | Vmax [10]: 0.299 nmol/min | Drug metabolism [12]: metabolite_detected | Vmax [13]: 1.41 nmol/min | Drug metabolism [14]: metabolite_detected

COc1ccc2[nH]c([S+]([O-])Cc3ncc(C)c(OC)c3C)nc2c1 (stereo not drawn) [OMEPRAZOLE]
fold induction at 48 h, up to 30 µM [16]: 47.4

CCC1(c2ccccc2)C(=O)NC(=O)NC1=O [PHENOBARBITAL]
fold induction at 48 h, up to 30 µM [17]: 22.1
